Test results taken from US9695217B2, “Peptide domains that bind small molecules” (Iowa State University Research Foundation, Inc., priority 2010, dated 2017).
Where two headings read alike, the source gives them in different places.

Experiments:
[1] = known polyhistidine binding domain, background statement; read-out: molar dissociation constant for nickel; cited from earlier work
[2] = Binding strength measured by surface plasmon resonance (BIACOR 3000, Sensor Chip NTA); settings: read-out: Kd (dissociation constant for nickel), SPR

In the case of YSHHHHHHLAGTA [C26], the Kd [1] is given as 0.023 nM and the Kd [2] is given as ~0.023 nM.
